Patent US4564627A, “Feed composition” (Nihon Nohyaku Co., Ltd., priority 1982, dated 1986)

Tests used:
[1] = LD50 mouse (male); details: in vivo
Excerpt: Examples of the compounds represented by the general formula [1] according to this invention and their toxicities are shown below.

[2] = Growth of body weight of broilers (Test Example 1); type: in vivo, "A A Fuji" broilers (chicken); details: for Body weight at week age 0: week age 0 (before addition); for Body weight at week age 3: week age 3 (start of addition)
Method: (§1) To each group consisting of 30 "A A Fuji" broilers (15 male, 15 female), a commercially available early period broiler feed (crumble form, Cp 22%, ME 3,030 kcal/kg) was given from beginning of feeding to 4 week age, and a latter period broiler feed (mash form, Cp 18%, ME 3,030 kcal/kg) was given ad libitum from 4 week age to 10 week age. The test period was from Oct. 10, 1981 through Dec. 20, 1981. Addition of test compounds to the above feeds in predetermined concentrations was conducted from 3 week age through the completion of the test.
(1) Growth of body weight
[…] All broilers were measured and an average body weight was calculated for each group.

[3] = test system: broilers; assay: Abdominal fat deposit of broilers (Test Example 1); type: in vivo, "A A Fuji" broilers (chicken)
Method: as §1
(§2) Five broilers at 6 week age, five broilers at 8 week age and ten broilers at 10 week age were taken out from each group and slaughtered. Immediately after slaughtering, they were cooled in water for about 2 hr and the body weight of each slaughtered broiler was measured and subsequently they were stored at 2° C. for about 20 hr. Then, in order to measure abdominal fat, mesentary fat was removed and fat adhered to from gizzard to proventriculus was collected and weighed as the weight of abdominal fat. This weight was divided by body weight to obtain abdominal fat deposit per 100 g of body weight. Further, liver fat was also collected and weighed. A liver under freeze storage was cut into slices in a total quantity of 2 to 3 g. The slices were placed in a cylindrical filter paper and weighed. Then, these slices were dried for 3 hr in a hot air drier kept at 90° C. and subsequently extracted for 17 hr with ethyl ether in a Soxhlet fat extractor. After drying the extract for 3 hr at 60° C. and weighing the residue, crude fat content in liver was calculated.

[4] = test system: broilers; assay: Crude fat content in liver of broilers (Test Example 1); type: in vivo, "A A Fuji" broilers (chicken)
Method: as §1, §2

[5] = test system: laying hens; assay: Thickness of eggshell of laying hens (Test Example 2); type: in vivo
Excerpt: (§3) As test hens, commercially available laying hens of 480 day age were used. The control group fed with a feed not containing any compound of this invention consisted of 100 laying hens, and each test group fed with a feed containing a compound of this invention consisted of 10 laying hens. The test was repeated twice. The test period was 16 weeks from Nov. 17, 1981 to Mar. 8, 1982. The first 4 weeks from the start was a preliminary observation period, during which each group was controlled so as to give the same egg production rate. As the feed, a commercially available feed for laying hens (Cp 16% or above, ME 2,800 kcal/kg or above) was used. From the 5th week, predetermined quantities of test compounds were uniformly added to this feed and the resulting blended feeds were given to test groups. Feeds and water were given ad libitum. Constant lighting was made for 14 hr a day. Egg production rate was daily recorded for each individual hen and egg weight for each test group. Feed intake quantity was obtained by calculating on every other week a difference between quantity fed and quantity left. For examining egg quality, strength of eggshell and thickness of eggshell were measured for all normal eggs laid during a period of the previous day of measurement to 3 P.M. of the measurement day. Strength of eggshell was measured by a FHK eggshell strength tester model FN-597, and thickness of eggshell by a dial thickness gauge.

[6] = test system: laying hens; assay: Strength of eggshell of laying hens (Test Example 2); type: in vivo
Excerpt: as §3

SMILES: CC(C)OC(=O)C(C(=O)OC(C)C)=C1SCCS1 [compound 6]
- LD50 [1]: 1350 mg/kg
- Body weight at week age 0 ([2]; 100 ppm in feed from 3 week age): 41 g
- Body weight at week age 0 ([2]; 200 ppm in feed from 3 week age): 41 g
- Body weight at week age 0 ([2]; 400 ppm in feed from 3 week age): 41 g
- Body weight at week age 0 ([2]; 800 ppm in feed from 3 week age): 41 g
- Body weight at week age 0 ([2]; 1,600 ppm in feed from 3 week age): 41 g
- Body weight at week age 3 ([2]; 100 ppm in feed): 628 g
- Body weight at week age 3 ([2]; 200 ppm in feed): 623 g
- Body weight at week age 3 ([2]; 400 ppm in feed): 624 g
- Body weight at week age 3 ([2]; 800 ppm in feed): 622 g
- Body weight at week age 3 ([2]; 1,600 ppm in feed): 624 g
- Body weight at week age 4 ([2]; 100 ppm in feed): 978 g
- Body weight at week age 4 ([2]; 200 ppm in feed): 983 g
- Body weight at week age 4 ([2]; 400 ppm in feed): 984 g
- Body weight at week age 4 ([2]; 800 ppm in feed): 981 g
- Body weight at week age 4 ([2]; 1,600 ppm in feed): 980 g
- Body weight at week age 5 ([2]; 100 ppm in feed): 1,326 g
- Body weight at week age 5 ([2]; 200 ppm in feed): 1,340 g
- Body weight at week age 5 ([2]; 400 ppm in feed): 1,338 g
- Body weight at week age 5 ([2]; 800 ppm in feed): 1,332 g
- Body weight at week age 5 ([2]; 1,600 ppm in feed): 1,328 g
- Body weight at week age 6 ([2]; 100 ppm in feed): 1,672 g
- Body weight at week age 6 ([2]; 200 ppm in feed): 1,662 g
- Body weight at week age 6 ([2]; 400 ppm in feed): 1,652 g
- Body weight at week age 6 ([2]; 800 ppm in feed): 1,657 g
- Body weight at week age 6 ([2]; 1,600 ppm in feed): 1,663 g
- Body weight at week age 7 ([2]; 100 ppm in feed): 2,602 g
- Body weight at week age 7 ([2]; 200 ppm in feed): 2,108 g
- Body weight at week age 7 ([2]; 400 ppm in feed): 2,112 g
- Body weight at week age 7 ([2]; 800 ppm in feed): 2,063 g
- Body weight at week age 7 ([2]; 1,600 ppm in feed): 2,102 g
- Body weight at week age 8 ([2]; 100 ppm in feed): 2,492 g
- Body weight at week age 8 ([2]; 200 ppm in feed): 2,487 g
- Body weight at week age 8 ([2]; 400 ppm in feed): 2,505 g
- Body weight at week age 8 ([2]; 800 ppm in feed): 2,501 g
- Body weight at week age 8 ([2]; 1,600 ppm in feed): 2,483 g
- Body weight at week age 9 ([2]; 100 ppm in feed): 2,880 g
- Body weight at week age 9 ([2]; 200 ppm in feed): 2,873 g
- Body weight at week age 9 ([2]; 400 ppm in feed): 2,865 g
- Body weight at week age 9 ([2]; 800 ppm in feed): 2,858 g
- Body weight at week age 9 ([2]; 1,600 ppm in feed): 2,864 g
- Body weight at week age 10 ([2]; 100 ppm in feed): 3,107 g
- Body weight at week age 10 ([2]; 200 ppm in feed): 3,112 g
- Body weight at week age 10 ([2]; 400 ppm in feed): 3,086 g
- Body weight at week age 10 ([2]; 800 ppm in feed): 3,024 g
- Body weight at week age 10 ([2]; 1,600 ppm in feed): 3,033 g
- Abdominal fat deposit ([3]; 6w, 100 ppm in feed): 3.23 g/100 g
- Abdominal fat deposit ([3]; 6w, 200 ppm in feed): 3.24 g/100 g
- Abdominal fat deposit ([3]; 6w, 400 ppm in feed): 3.08 g/100 g
- Abdominal fat deposit ([3]; 6w, 800 ppm in feed): 3.14 g/100 g
- Abdominal fat deposit ([3]; 6w, 1,600 ppm in feed): 3.04 g/100 g
- Abdominal fat deposit ([3]; 8w, 100 ppm in feed): 3.72 g/100 g
- Abdominal fat deposit ([3]; 8w, 200 ppm in feed): 3.64 g/100 g
- Abdominal fat deposit ([3]; 8w, 400 ppm in feed): 3.38 g/100 g
- Abdominal fat deposit ([3]; 8w, 800 ppm in feed): 3.35 g/100 g
- Abdominal fat deposit ([3]; 8w, 1,600 ppm in feed): 3.32 g/100 g
- Abdominal fat deposit ([3]; 10w, 100 ppm in feed): 4.18 g/100 g
- Abdominal fat deposit ([3]; 10w, 200 ppm in feed): 4.03 g/100 g
- Abdominal fat deposit ([3]; 10w, 400 ppm in feed): 3.97 g/100 g
- Abdominal fat deposit ([3]; 10w, 800 ppm in feed): 3.85 g/100 g
- Abdominal fat deposit ([3]; 10w, 1,600 ppm in feed): 3.78 g/100 g
- Crude fat content in liver ([4]; 6w, 100 ppm in feed): 2.23%
- Crude fat content in liver ([4]; 6w, 200 ppm in feed): 2.03%
- Crude fat content in liver ([4]; 6w, 400 ppm in feed): 2.15%
- Crude fat content in liver ([4]; 6w, 800 ppm in feed): 2.14%
- Crude fat content in liver ([4]; 6w, 1,600 ppm in feed): 2.08%
- Crude fat content in liver ([4]; 8w, 100 ppm in feed): 5.51%
- Crude fat content in liver ([4]; 8w, 200 ppm in feed): 4.97%
- Crude fat content in liver ([4]; 8w, 400 ppm in feed): 4.53%
- Crude fat content in liver ([4]; 8w, 800 ppm in feed): 4.26%
- Crude fat content in liver ([4]; 8w, 1,600 ppm in feed): 4.32%
- Crude fat content in liver ([4]; 10w, 100 ppm in feed): 5.09%
- Crude fat content in liver ([4]; 10w, 200 ppm in feed): 4.33%
- Crude fat content in liver ([4]; 10w, 400 ppm in feed): 4.26%
- Crude fat content in liver ([4]; 10w, 800 ppm in feed): 4.33%
- Crude fat content in liver ([4]; 10w, 1,600 ppm in feed): 4.32%
- Eggshell thickness ([5]; 509th day, 5 ppm in feed): 0.328 mm
- Eggshell thickness ([5]; 509th day, 25 ppm in feed): 0.345 mm
- Eggshell thickness ([5]; 509th day, 125 ppm in feed): 0.343 mm
- Eggshell thickness ([5]; 509th day, 625 ppm in feed): 0.325 mm
- Eggshell thickness ([5]; 555th day, 5 ppm in feed): 0.341 mm
- Eggshell thickness ([5]; 555th day, 25 ppm in feed): 0.345 mm
- Eggshell thickness ([5]; 555th day, 125 ppm in feed): 0.340 mm
- Eggshell thickness ([5]; 555th day, 625 ppm in feed): 0.346 mm
- Eggshell thickness ([5]; 612th day, 5 ppm in feed): 0.344 mm
- Eggshell thickness ([5]; 612th day, 25 ppm in feed): 0.341 mm
- Eggshell thickness ([5]; 612th day, 125 ppm in feed): 0.342 mm
- Eggshell thickness ([5]; 612th day, 625 ppm in feed): 0.348 mm
- Eggshell strength ([6]; 509th day, 5 ppm in feed): 2.40 kg
- Eggshell strength ([6]; 509th day, 25 ppm in feed): 2.47 kg
- Eggshell strength ([6]; 509th day, 125 ppm in feed): 2.39 kg
- Eggshell strength ([6]; 509th day, 625 ppm in feed): 2.42 kg
- Eggshell strength ([6]; 555th day, 5 ppm in feed): 2.75 kg
- Eggshell strength ([6]; 555th day, 25 ppm in feed): 2.88 kg
- Eggshell strength ([6]; 555th day, 125 ppm in feed): 2.95 kg
- Eggshell strength ([6]; 555th day, 625 ppm in feed): 3.01 kg
- Eggshell strength ([6]; 612th day, 5 ppm in feed): 2.74 kg
- Eggshell strength ([6]; 612th day, 25 ppm in feed): 2.99 kg
- Eggshell strength ([6]; 612th day, 125 ppm in feed): 3.11 kg
- Eggshell strength ([6]; 612th day, 625 ppm in feed): 3.07 kg
